We go through two compounds from ChEMBL document CHEMBL5537180, “Discovery of Novel Aminobutanoic Acid-Based ASCT2 Inhibitors for the Treatment of Non-Small-Cell Lung Cancer” (J Med Chem, 2024).

Activity calls are given as the source filed them. No cut-off for these calls is given here.

Series [1] has as its system A549. The series can be described thus: Induction of autophagy in human A549 cells assessed as increase in LC3 II expression at 5 to 10 uM measured after 24 hrs by Western blot analysis. The class given is functional, cell-based. The note with it: dose 5-10 µM.
Series [2] deals with NSCLC. Briefly: Antiproliferative activity against human NSCLC cells cultured as 2566 organoids assessed as cell viability incubated for 96 hrs by Celltiter-glo viability assay. Type of series: functional, cell-based. In general terms: ATP-based viability assays read luminescence as a measure of living cells.
Series [3] in a line: MRT (0 to infinity) in Sprague-Dawley rat at 10 mg/kg, ip incubated for 24 hrs by LC-MS/MS analysis. The note with it: in vivo. Type of series: ADME, organism-based.
Series [4] concerns the target T1, Neutral amino acid transporter B(0) (Homo sapiens) (UniProt Q15758).
T1 sequence (whole entry): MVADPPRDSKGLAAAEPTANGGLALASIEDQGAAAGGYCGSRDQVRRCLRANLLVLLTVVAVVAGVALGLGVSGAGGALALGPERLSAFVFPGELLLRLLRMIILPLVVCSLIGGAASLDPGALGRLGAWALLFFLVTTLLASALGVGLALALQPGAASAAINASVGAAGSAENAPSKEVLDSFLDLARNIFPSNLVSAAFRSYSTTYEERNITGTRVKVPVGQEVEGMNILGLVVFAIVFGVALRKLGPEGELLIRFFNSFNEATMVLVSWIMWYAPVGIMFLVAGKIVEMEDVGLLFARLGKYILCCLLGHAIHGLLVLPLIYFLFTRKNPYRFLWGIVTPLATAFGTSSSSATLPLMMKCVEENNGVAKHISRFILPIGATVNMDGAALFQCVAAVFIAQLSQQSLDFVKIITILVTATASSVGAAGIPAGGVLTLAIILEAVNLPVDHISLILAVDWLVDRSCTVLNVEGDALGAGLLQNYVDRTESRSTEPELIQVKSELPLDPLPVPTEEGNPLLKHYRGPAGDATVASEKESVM
Briefly: Inhibition of ASCT2 in human A549 cells assessed as reduction in [13C]-Gln uptake at 50 uM relative to control. The class given is cell-based.

For series [5], the system named is Cell membrane. Briefly: Induction of mitochondrial membrane potential loss in human A549 cells assessed as […] aggregates at 5 uM incubated for 24 hrs by JC-1 staining based flow cytometry analysis (reference value: 93.8%). The class given is cell membranes. A general note: In flow cytometry, cells or beads pass a laser one at a time.
Series [6] in a line: Toxicity in BALB/c nude mouse assessed as effect on lung at 25 to 50 mg/kg, ip measured after 3 weeks by H and E staining based analysis. The class given is organism-based. The settings on record: in vivo, 504 h, dose 25-50 mg/kg.
Series [7] concerns A549. The series can be described thus: Induction of apoptosis in human A549 cells assessed as downregulation of c-Myc expression at 5 to 10 uM incubated for 24 hrs by Western blot analysis. Type of series: functional, cell-based. The settings on record: dose 5-10 µM.
The test system of series [8] is A549. The series can be described thus: Induction of apoptosis in human A549 cells measured after 24 hrs by annexin-V/PI staining based flow cytometry analysis. The class given is functional, cell-based. The settings on record: dose 5-10 µM.
In series [9] the test system is A549. The series can be described thus: Induction of autophagy in human A549 cells assessed as downregulation of ERK expression at 5 to 10 uM measured after 24 hrs by Western blot analysis. Type of series: functional, cell-based. The note with it: dose 5-10 µM. On the technique in general: In western blotting, separated proteins are transferred to a membrane and probed.

Series [10] has as its target Large neutral amino acids transporter small subunit 1 (Homo sapiens) (UniProt Q01650). The series can be described thus: Inhibition of LAT1 (unknown origin) overexpressed in human A549 cells assessed as reduction in [13C]-Gln uptake preincubated for 5 mins followed by substrate addition and measured after 15 mins. The note with it: time 20.0 min. The class given is cell-based.

Series [11] has as its target T1, Neutral amino acid transporter B(0) (Homo sapiens). The series can be described thus: Inhibition of ASCT2 in HEK293 cells assessed as reduction in [13C]-Gln uptake at 50 uM relative to control. Type of series: cell-based.
A short description of series [12]: AUC (0 to infinity) in Sprague-Dawley rat at 10 mg/kg, ip incubated for 24 hrs by LC-MS/MS analysis. The class given is ADME, organism-based. The note with it: in vivo.
In series [13] the test system is A549. The series can be described thus: Inhibition of colony formation in human A549 cells measured after 7 to 10 days by crystal violet staining analysis. The class given is functional, cell-based. The settings on record: dose 5-10 µM, time 7-10 day.
Series [14] has as its system A549. Briefly: Inhibition of Gln uptake in human A549 cells assessed as reduction in malate level incubated for 24 hrs by LC-MS/MS analysis. Type of series: functional, cell-based.
Series [15] relates to A549. Briefly: Inhibition of AKT/mTORC signalling in human A549 cells assessed as decrease in mTORC1 level at 5 to 10 uM measured after 24 hrs by Western blot analysis. Type of series: cell-based. The settings on record: dose 5-10 µM.
Series [16] has as its system A549. The series can be described thus: Antitumor activity against human A549 cells xenografted in BALB/c nude mouse assessed as decrease in tumor weight at 25 to 50 mg/kg, ip measured daily for 3 weeks. The class given is functional, organism-based. The note with it: dose 25-50 mg/kg.
Series [17] deals with A549. The series can be described thus: Induction of autophagy in human A549 cells assessed as downregulation of p70S6K level at 5 to 10 uM measured after 24 hrs by Western blot analysis. The note with it: dose 5-10 µM. The class given is functional, cell-based.
The subject of series [18] is A549. Briefly: Inhibition of Gln uptake in human A549 cells assessed as reduction in citrate level incubated for 24 hrs by LC-MS/MS analysis. The class given is functional, cell-based.
Series [19] concerns A549. Briefly: Inhibition of AKT/mTORC signalling in human A549 cells assessed as decrease in AKT phosphorylation level at 5 to 10 uM measured after 24 hrs by Western blot analysis. The class given is cell-based. The settings on record: dose 5-10 µM.
The target in series [20] is T2, Sodium-coupled neutral amino acid symporter 2 (Homo sapiens) (UniProt Q96QD8).
T2 sequence (whole entry): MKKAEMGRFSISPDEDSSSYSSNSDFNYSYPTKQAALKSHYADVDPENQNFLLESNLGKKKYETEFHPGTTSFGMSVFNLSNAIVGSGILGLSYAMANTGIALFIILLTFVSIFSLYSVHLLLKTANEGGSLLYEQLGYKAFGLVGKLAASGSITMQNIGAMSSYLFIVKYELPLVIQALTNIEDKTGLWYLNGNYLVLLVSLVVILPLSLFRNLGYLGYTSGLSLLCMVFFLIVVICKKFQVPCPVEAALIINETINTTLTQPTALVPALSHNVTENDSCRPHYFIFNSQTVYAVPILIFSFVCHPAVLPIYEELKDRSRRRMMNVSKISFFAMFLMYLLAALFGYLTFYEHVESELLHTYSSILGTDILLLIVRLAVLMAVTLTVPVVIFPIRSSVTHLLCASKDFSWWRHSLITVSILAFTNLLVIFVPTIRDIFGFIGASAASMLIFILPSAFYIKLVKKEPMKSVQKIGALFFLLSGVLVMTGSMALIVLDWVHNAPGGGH
The series can be described thus: Inhibition of SNAT2 (unknown origin) overexpressed in HEK293 cells assessed as reduction in [13C]-Gln uptake preincubated for 5 mins followed by substrate addition and measured after 15 mins. Type of series: cell-based. The note with it: time 20.0 min.

Series [21] concerns A549. The series can be described thus: Induction of apoptosis in human A549 cells assessed as caspase 9 activation at 5 to 10 uM incubated for 24 hrs by Western blot analysis. The class given is functional, cell-based. The note with it: dose 5-10 µM.

Chain of Large neutral amino acids transporter small subunit 1 (Homo sapiens) (Q01650 whole entry): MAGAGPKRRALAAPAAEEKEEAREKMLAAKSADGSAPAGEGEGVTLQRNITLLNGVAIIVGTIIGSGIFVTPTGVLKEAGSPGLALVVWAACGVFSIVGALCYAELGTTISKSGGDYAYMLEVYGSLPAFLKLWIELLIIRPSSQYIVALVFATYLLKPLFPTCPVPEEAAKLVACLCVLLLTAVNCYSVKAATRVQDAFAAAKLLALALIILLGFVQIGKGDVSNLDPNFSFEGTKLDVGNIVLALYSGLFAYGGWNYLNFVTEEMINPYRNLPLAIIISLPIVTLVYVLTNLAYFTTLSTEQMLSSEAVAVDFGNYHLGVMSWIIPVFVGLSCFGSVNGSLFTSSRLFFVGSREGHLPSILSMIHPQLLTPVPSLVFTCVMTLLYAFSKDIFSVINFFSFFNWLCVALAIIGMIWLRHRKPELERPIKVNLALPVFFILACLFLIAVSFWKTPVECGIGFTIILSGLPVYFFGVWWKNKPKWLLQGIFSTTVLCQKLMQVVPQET

As to `CC(C)(C)c1ccc(OCC#Cc2ccccc2)c(CN(CC[C@H](N)C(=O)O)Cc2cc(C(C)(C)C)ccc2OCC#Cc2ccccc2)c1`, the outcome in [1], in [7], in [9], in series [16], in series [17] and in series [21] was Active. The 50% inhibitory concentration (IC50) (in general, the midpoint of a concentration-inhibition curve) in series [2] turned out to be 8.08 µM. The mean residence time (MRT inf) (as a rule, the average time that molecules of a dose stay in the body) in [3] is 20.7 h. Moreover, the results for the inhibition in series [4], in series [11] and in series [13] were 55.6%, 98.3% and “Dose-Dependent Effect”, respectively. Besides, the Activity in series [5] is 76.1%; in series [6] it was “Toxic”; in series [8], “Dose-Dependent Effect”. The inhibition result in [10] and in series [20] was “inactive” in each case. Moreover, the total exposure AUC(0-inf) (commonly total exposure, with the tail of the curve extrapolated) in [12] was found to be 14500 ng·h/mL. The inhibition result in series [14], in [15], in series [18] and in series [19] was “Active” each time.
`N[C@@H](CCN(Cc1ccccc1OCC#Cc1ccc(Cl)cc1)Cc1ccccc1OCC#Cc1ccc(Cl)cc1)C(=O)O`: the outcome in series [1], in [7], in series [9], in series [16], in series [17] and in series [21] was Active. In addition, the IC50 in [2] worked out at 5.09 µM. This compound gave a mean residence time (MRT inf) in series [3] of 13.7 h. Also, the inhibition (as a rule, the percentage by which the read-out fell short of the control) in series [4] is 90.8%; in [11], 93.2%; in series [13] it was “Dose-Dependent Effect”. Further, the Activity in series [5] is 87.8%; in series [6] it was “Toxic”; in [8], “Dose-Dependent Effect”. The inhibition result in series [10] and in [20] was “inactive” each time. Further, the area under the curve AUC(0-inf) in series [12] is 2820 ng·h/mL. Also, the inhibition entry in series [14], in series [15], in [18] and in [19] was “Active” throughout.
